Source: publication PMC11992225, “Antibacterial compounds against non-growing and intracellular bacteria” (npj Antimicrobials and Resistance, 2025)
Converted amounts (≈) assume the structure as drawn.

System: intracellular S. flexneri 5a M90T in TC7 cells
Assay: microbe, parasite or virus in culture
Format: cell-based, Shigella flexneri
Conditions: Shigella flexneri, TC7, 14 h

Row | SMILES | IC50 [µM]
1 | CO/N=C1\CN(c2nc3c(cc2F)c(=O)c(C(=O)O)cn3C2CC2)CC1CN (centres unmarked) [Gemifloxacin] | 0.022
2 | O=C(O)c1cn(-c2ccc(F)cc2)c2cc(N3CCNCC3)c(F)cc2c1=O [Sarafloxacin] | 0.114
3 | N[C@@H]1CCCCN(c2c(F)cc3c(=O)c(C(=O)O)cn(C4CC4)c3c2Cl)C1 [Besifloxacin] | 0.331

Same assay, conditions: TC7 cells infected with GFP-expressing S. flexneri, 14 h treatment, 0.5 x MIC

Row | SMILES | Fluorescence intensity (RFU), Mean, 0.5 x MIC [RFU]
4 | N[C@@H]1CCCCN(c2c(F)cc3c(=O)c(C(=O)O)cn(C4CC4)c3c2Cl)C1 [Besifloxacin] | 8982.33

Same assay, conditions: TC7 cells infected with GFP-expressing S. flexneri, 14 h treatment, 2 x MIC

Row | SMILES | Fluorescence intensity (RFU), Mean, 2 x MIC [RFU]
5 | CO/N=C1\CN(c2nc3c(cc2F)c(=O)c(C(=O)O)cn3C2CC2)CC1CN (centres unmarked) [Gemifloxacin] | 4953.61
6 | O=C(O)c1cn(-c2ccc(F)cc2)c2cc(N3CCNCC3)c(F)cc2c1=O [Sarafloxacin] | 5001.97
7 | N[C@@H]1CCCCN(c2c(F)cc3c(=O)c(C(=O)O)cn(C4CC4)c3c2Cl)C1 [Besifloxacin] | 4305.25

Same assay, conditions: TC7 cells infected with GFP-expressing S. flexneri, 14 h treatment, 4 x MIC

Row | SMILES | Fluorescence intensity (RFU), Mean, 4 x MIC [RFU]
8 | CO/N=C1\CN(c2nc3c(cc2F)c(=O)c(C(=O)O)cn3C2CC2)CC1CN (centres unmarked) [Gemifloxacin] | 3661.36
9 | O=C(O)c1cn(-c2ccc(F)cc2)c2cc(N3CCNCC3)c(F)cc2c1=O [Sarafloxacin] | 3626.47
10 | N[C@@H]1CCCCN(c2c(F)cc3c(=O)c(C(=O)O)cn(C4CC4)c3c2Cl)C1 [Besifloxacin] | 3977.14

Same assay, conditions: TC7 cells infected with GFP-expressing S. flexneri, 14 h treatment, 8 x MIC

Row | SMILES | Fluorescence intensity (RFU), Mean, 8 x MIC [RFU]
11 | CO/N=C1\CN(c2nc3c(cc2F)c(=O)c(C(=O)O)cn3C2CC2)CC1CN (centres unmarked) [Gemifloxacin] | 3159.39
12 | O=C(O)c1cn(-c2ccc(F)cc2)c2cc(N3CCNCC3)c(F)cc2c1=O [Sarafloxacin] | 3165.28
13 | N[C@@H]1CCCCN(c2c(F)cc3c(=O)c(C(=O)O)cn(C4CC4)c3c2Cl)C1 [Besifloxacin] | 2983.69

Same assay, conditions: TC7 cells infected with GFP-expressing S. flexneri, 14 h treatment, 16 x MIC

Row | SMILES | Fluorescence intensity (RFU), Mean, 16 x MIC [RFU]
14 | CO/N=C1\CN(c2nc3c(cc2F)c(=O)c(C(=O)O)cn3C2CC2)CC1CN (centres unmarked) [Gemifloxacin] | 3090.56
15 | O=C(O)c1cn(-c2ccc(F)cc2)c2cc(N3CCNCC3)c(F)cc2c1=O [Sarafloxacin] | 2660.39
16 | N[C@@H]1CCCCN(c2c(F)cc3c(=O)c(C(=O)O)cn(C4CC4)c3c2Cl)C1 [Besifloxacin] | 2325.53

Same assay, conditions: TC7 cells infected with GFP-expressing S. flexneri, 14 h treatment, 32 x MIC

Row | SMILES | Fluorescence intensity (RFU), Mean, 32 x MIC [RFU]
17 | CO/N=C1\CN(c2nc3c(cc2F)c(=O)c(C(=O)O)cn3C2CC2)CC1CN (centres unmarked) [Gemifloxacin] | 2706.11
18 | O=C(O)c1cn(-c2ccc(F)cc2)c2cc(N3CCNCC3)c(F)cc2c1=O [Sarafloxacin] | 2149.72
19 | N[C@@H]1CCCCN(c2c(F)cc3c(=O)c(C(=O)O)cn(C4CC4)c3c2Cl)C1 [Besifloxacin] | 1789.06

Same assay, conditions: TC7 cells infected with GFP-expressing S. flexneri, 14 h treatment, MIC

Row | SMILES | Fluorescence intensity (RFU), Mean, MIC [RFU]
20 | CO/N=C1\CN(c2nc3c(cc2F)c(=O)c(C(=O)O)cn3C2CC2)CC1CN (centres unmarked) [Gemifloxacin] | 6688.44
21 | O=C(O)c1cn(-c2ccc(F)cc2)c2cc(N3CCNCC3)c(F)cc2c1=O [Sarafloxacin] | 7309.11
22 | N[C@@H]1CCCCN(c2c(F)cc3c(=O)c(C(=O)O)cn(C4CC4)c3c2Cl)C1 [Besifloxacin] | 5856.42

System: non-growing UPEC CFT073
Assay: Dilution-regrowth assay (screen, hit validation, dose-response) on stationary-phase UPEC
Format: cell-based, Escherichia coli
Conditions: E. coli in 1:4 CA-MHB (pH 7.4); concentration 0.25; average
Procedure, shortened: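 Regrowth (OD600 after 6 h, 37 °C) of diluted non-growing CFT073, following 24 h compound treatment of 24 h stationary cultures, defines activity relative to untreated control. Screen at 20 µM, validation at 20, 10, 5 µM (duplicates), dose–response in three biological replicates fitted by five-parameter logistic.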

Row | SMILES | Regrowth, OD600 at 6h or 8h after dilution into drug-free medium
23 | CO/N=C1\CN(c2nc3c(cc2F)c(=O)c(C(=O)O)cn3C2CC2)CC1CN (centres unmarked) [Gemifloxacin] | 0.556
24 | N[C@@H]1CCCCN(c2c(F)cc3c(=O)c(C(=O)O)cn(C4CC4)c3c2Cl)C1 [Besifloxacin] | 0.548

Same assay, conditions: E. coli in 1:4 CA-MHB (pH 7.4); concentration 0.5; average

Row | SMILES | Regrowth, OD600 at 6h or 8h after dilution into drug-free medium
25 | CO/N=C1\CN(c2nc3c(cc2F)c(=O)c(C(=O)O)cn3C2CC2)CC1CN (centres unmarked) [Gemifloxacin] | 0.511
26 | N[C@@H]1CCCCN(c2c(F)cc3c(=O)c(C(=O)O)cn(C4CC4)c3c2Cl)C1 [Besifloxacin] | 0.480

Same assay, conditions: E. coli in 1:4 CA-MHB (pH 7.4); concentration 1; average

Row | SMILES | Regrowth, OD600 at 6h or 8h after dilution into drug-free medium
27 | CO/N=C1\CN(c2nc3c(cc2F)c(=O)c(C(=O)O)cn3C2CC2)CC1CN (centres unmarked) [Gemifloxacin] | 0.206
28 | N[C@@H]1CCCCN(c2c(F)cc3c(=O)c(C(=O)O)cn(C4CC4)c3c2Cl)C1 [Besifloxacin] | 0.155

Same assay, conditions: E. coli in 1:4 CA-MHB (pH 7.4); concentration 2.5; average

Row | SMILES | Regrowth, OD600 at 6h or 8h after dilution into drug-free medium
29 | CO/N=C1\CN(c2nc3c(cc2F)c(=O)c(C(=O)O)cn3C2CC2)CC1CN (centres unmarked) [Gemifloxacin] | 0.090
30 | N[C@@H]1CCCCN(c2c(F)cc3c(=O)c(C(=O)O)cn(C4CC4)c3c2Cl)C1 [Besifloxacin] | 0.075

Same assay, conditions: E. coli in 1:4 CA-MHB (pH 7.4); concentration 5; average

Row | SMILES | Regrowth, OD600 at 6h or 8h after dilution into drug-free medium
31 | CO/N=C1\CN(c2nc3c(cc2F)c(=O)c(C(=O)O)cn3C2CC2)CC1CN (centres unmarked) [Gemifloxacin] | 0.086
32 | N[C@@H]1CCCCN(c2c(F)cc3c(=O)c(C(=O)O)cn(C4CC4)c3c2Cl)C1 [Besifloxacin] | 0.073

Same assay, conditions: E. coli in 1:4 CA-MHB (pH 7.4); concentration 10; average

Row | SMILES | Regrowth, OD600 at 6h or 8h after dilution into drug-free medium
33 | CO/N=C1\CN(c2nc3c(cc2F)c(=O)c(C(=O)O)cn3C2CC2)CC1CN (centres unmarked) [Gemifloxacin] | 0.083
34 | N[C@@H]1CCCCN(c2c(F)cc3c(=O)c(C(=O)O)cn(C4CC4)c3c2Cl)C1 [Besifloxacin] | 0.071

Same assay, conditions: E. coli in 1:4 CA-MHB (pH 7.4); concentration 30; average

Row | SMILES | Regrowth, OD600 at 6h or 8h after dilution into drug-free medium
35 | CO/N=C1\CN(c2nc3c(cc2F)c(=O)c(C(=O)O)cn3C2CC2)CC1CN (centres unmarked) [Gemifloxacin] | 0.082
36 | N[C@@H]1CCCCN(c2c(F)cc3c(=O)c(C(=O)O)cn(C4CC4)c3c2Cl)C1 [Besifloxacin] | 0.073

Same assay, conditions: E. coli in LPM (pH 5.5); concentration 0.25; average

Row | SMILES | Regrowth, OD600 at 6h or 8h after dilution into drug-free medium
37 | CO/N=C1\CN(c2nc3c(cc2F)c(=O)c(C(=O)O)cn3C2CC2)CC1CN (centres unmarked) [Gemifloxacin] | 0.559
38 | N[C@@H]1CCCCN(c2c(F)cc3c(=O)c(C(=O)O)cn(C4CC4)c3c2Cl)C1 [Besifloxacin] | 0.547

Same assay, conditions: E. coli in LPM (pH 5.5); concentration 0.5; average

Row | SMILES | Regrowth, OD600 at 6h or 8h after dilution into drug-free medium
39 | CO/N=C1\CN(c2nc3c(cc2F)c(=O)c(C(=O)O)cn3C2CC2)CC1CN (centres unmarked) [Gemifloxacin] | 0.564
40 | N[C@@H]1CCCCN(c2c(F)cc3c(=O)c(C(=O)O)cn(C4CC4)c3c2Cl)C1 [Besifloxacin] | 0.532

Same assay, conditions: E. coli in LPM (pH 5.5); concentration 1; average

Row | SMILES | Regrowth, OD600 at 6h or 8h after dilution into drug-free medium
41 | CO/N=C1\CN(c2nc3c(cc2F)c(=O)c(C(=O)O)cn3C2CC2)CC1CN (centres unmarked) [Gemifloxacin] | 0.562
42 | N[C@@H]1CCCCN(c2c(F)cc3c(=O)c(C(=O)O)cn(C4CC4)c3c2Cl)C1 [Besifloxacin] | 0.550

Same assay, conditions: E. coli in LPM (pH 5.5); concentration 2.5; average

Row | SMILES | Regrowth, OD600 at 6h or 8h after dilution into drug-free medium
43 | CO/N=C1\CN(c2nc3c(cc2F)c(=O)c(C(=O)O)cn3C2CC2)CC1CN (centres unmarked) [Gemifloxacin] | 0.529
44 | N[C@@H]1CCCCN(c2c(F)cc3c(=O)c(C(=O)O)cn(C4CC4)c3c2Cl)C1 [Besifloxacin] | 0.548

Same assay, conditions: E. coli in LPM (pH 5.5); concentration 5; average

Row | SMILES | Regrowth, OD600 at 6h or 8h after dilution into drug-free medium
45 | CO/N=C1\CN(c2nc3c(cc2F)c(=O)c(C(=O)O)cn3C2CC2)CC1CN (centres unmarked) [Gemifloxacin] | 0.513
46 | N[C@@H]1CCCCN(c2c(F)cc3c(=O)c(C(=O)O)cn(C4CC4)c3c2Cl)C1 [Besifloxacin] | 0.531

Same assay, conditions: E. coli in LPM (pH 5.5); concentration 10; average

Row | SMILES | Regrowth, OD600 at 6h or 8h after dilution into drug-free medium
47 | CO/N=C1\CN(c2nc3c(cc2F)c(=O)c(C(=O)O)cn3C2CC2)CC1CN (centres unmarked) [Gemifloxacin] | 0.417
48 | N[C@@H]1CCCCN(c2c(F)cc3c(=O)c(C(=O)O)cn(C4CC4)c3c2Cl)C1 [Besifloxacin] | 0.531

Same assay, conditions: E. coli in LPM (pH 5.5); concentration 30; average

Row | SMILES | Regrowth, OD600 at 6h or 8h after dilution into drug-free medium
49 | CO/N=C1\CN(c2nc3c(cc2F)c(=O)c(C(=O)O)cn3C2CC2)CC1CN (centres unmarked) [Gemifloxacin] | 0.143
50 | N[C@@H]1CCCCN(c2c(F)cc3c(=O)c(C(=O)O)cn(C4CC4)c3c2Cl)C1 [Besifloxacin] | 0.471

Same assay, conditions: Escherichia coli, pH 7.4

Row | SMILES | EC50 [µM]
51 | N[C@@H]1CCCCN(c2c(F)cc3c(=O)c(C(=O)O)cn(C4CC4)c3c2Cl)C1 [Besifloxacin] | 0.677

Same assay, conditions: Escherichia coli; E. coli, pH 7.4; regrowth delay of non-growing bacteria, 1:4 CA-MHB, 24 h treatment, OD600 6 h after 2500-fold dilution; read-out: EC50

Row | SMILES | EC50 [µM]
52 | CO/N=C1\CN(c2nc3c(cc2F)c(=O)c(C(=O)O)cn3C2CC2)CC1CN (centres unmarked) [Gemifloxacin] | 0.752
53 | O=C(O)c1cn(-c2ccc(F)cc2)c2cc(N3CCNCC3)c(F)cc2c1=O [Sarafloxacin] | 1.72

System: S. flexneri 5a M90T
Assay: MIC in tryptic soy broth, S. flexneri
Format: cell-based, Shigella flexneri
Conditions: Shigella flexneri, 5AM90T, read-out: MIC (μM) TSB
Procedure, shortened: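 Broth microdilution was used throughout. UPEC, P. aeruginosa and S. aureus were tested in CA-MHB buffered with 40 mM HEPES (pH 7.4); UPEC was additionally tested in LPM with 30 mM MES (pH 5.5). S. flexneri was grown in TSB. All determinations were run in triplicate.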

Row | SMILES | MIC [µM]
54 | CO/N=C1\CN(c2nc3c(cc2F)c(=O)c(C(=O)O)cn3C2CC2)CC1CN (centres unmarked) [Gemifloxacin] | 0.0156 (≈ 0.00608 µg/mL)
55 | O=C(O)c1cn(-c2ccc(F)cc2)c2cc(N3CCNCC3)c(F)cc2c1=O [Sarafloxacin] | 0.0625 (≈ 0.0241 µg/mL)
56 | N[C@@H]1CCCCN(c2c(F)cc3c(=O)c(C(=O)O)cn(C4CC4)c3c2Cl)C1 [Besifloxacin] | 0.25 (≈ 0.0985 µg/mL)
